According to paper PMC4500456 (Journal of Medicinal Chemistry, 2015):

Tested on: P. falciparum W2 (chloroquine resistant) strain
Test: In vitro activity against cultured W2 strain P. falciparum
Type: cell-based, Plasmodium falciparum

SMILES | fold more active than acid compound 4 (ester 5 vs acid 4, W2 and 3D7 strains) | IC50 (Plasmodium falciparum, W2, 48 h, read-out: IC50 (nM) (W2))
COC(=O)c1ccc(Oc2ccc3c(c2)B(O)OC3)cn1 [Compound 5, Methyl 5-(1-Hydroxy-1,3-dihydrobenzo[c][1,2]oxaborol-6-yloxy)picolinate] | about 5 fold | 
CCN(CC)CCCC(C)Nc1ccnc2cc(Cl)ccc12 (centres unmarked) [chloroquine] |  | 21 ± 6 nM
